Article PMC5046105, “Improved affinity at the cost of decreased specificity: a recurring theme in PDZ-peptide interactions” (Scientific Reports, 2016)
Substitutions are numbered along the chain they refer to. Ends that are not written are not given here.

T1: pWT PDZ2 K392M (Homo sapiens, UniProt Q12959, C378A/I342W/K392M)
T1 construct: constituting SAP97 residues 311–407 and the mutations I342W and C372A; His-tagged lipoyl protein domain (N, cleaved yes); made in house
T1 sequence (Q12959 311-407 I342W/C378A/K392M): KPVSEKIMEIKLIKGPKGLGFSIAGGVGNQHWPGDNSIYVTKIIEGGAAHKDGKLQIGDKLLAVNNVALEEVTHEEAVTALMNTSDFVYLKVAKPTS

T2: PDZØ9 (pWT SAP97 PDZ2 L391F/K392M) (Homo sapiens, UniProt Q12959, C378A/I342W/K392M/L391F)
T2 construct: constituting SAP97 residues 311–407 and the mutations I342W and C372A; His-tagged lipoyl protein domain (N, cleaved yes); made in house
T2 sequence (Q12959 311-407 I342W/C378A/L391F/K392M): T1 sequence (Q12959 311-407 I342W/C378A/K392M) with L81F

T3: pWT PDZ2 (pseudo wild type SAP97 PDZ2, I342W/C378A) (Homo sapiens, UniProt Q12959, C378A/I342W)
T3 construct: constituting SAP97 residues 311–407 and the mutations I342W and C372A; His-tagged lipoyl protein domain (N, cleaved yes); made in house
T3 sequence (Q12959 311-407 I342W/C378A): T1 sequence (Q12959 311-407 I342W/C378A/K392M) with M82K

T4: pWT PDZ2 L391F (Homo sapiens, UniProt Q12959, C378A/I342W/L391F)
T4 construct: constituting SAP97 residues 311–407 and the mutations I342W and C372A; His-tagged lipoyl protein domain (N, cleaved yes); made in house
T4 sequence (Q12959 311-407 I342W/C378A/L391F): T1 sequence (Q12959 311-407 I342W/C378A/K392M) with L81F, M82K

B1: RSISTDV peptide (C-terminus of protein FAM163B) (peptide)
peptide: Ac-RSISTDV
B2: KRKETLV peptide (C-terminus of neuroepithelial cell-transforming gene 1 protein, Net1) (peptide)
peptide: Ac-KRKETLV

Key:
[1] = molecular target: T1, pWT PDZ2 K392M; assay: Stopped-flow binding kinetics, peptide with pWT PDZ2 K392M; conditions: for Kd: Kd = koff/kon, ± propagated standard error; for Kd / koff: pH 7.5, 10 °C; for kon: Trp342 fluorescence, 1 µM PDZ, peptide 2–40 µM, N-acetylated peptide, 50 mM potassium phosphate pH 7.5, 10 °C, value ± standard error (EKKHTLL: mean of two experiments); for koff: displacement of pre-formed complex (1 µM PDZ, 2 µM peptide) with 100 and 150 µM dansylated RRRETQV peptide, value ± standard error
Experimental: (§1) The basic experimental parameters determined were the rate constants of association (kon) and dissociation (koff) for each peptide and for all PDZ variants, respectively, in a procedure described in Fig. 2 for the interaction between PDZØ9 and the EKKHTLL peptide as an example.
(§2) Figure 2 Determination of the two rate constants kon and koff for PDZØ9 binding to the EKKHTLL peptide. kon and koff were determined in separate experiments using stopped-flow spectroscopy and monitoring the change in Trp fluorescence upon binding. (a) The experimental trace was obtained by averaging of three individual experiments in which 11 μM of the EKKHTLL peptide was mixed with 1 μM PDZØ9. The trace was fitted to a single exponential function to obtain the observed rate constant, kobs. […] (c) In a displacement reaction a pre-formed complex between PDZØ9 (1 μM) and the EKKHTLL peptide (2 μM) was mixed with a large excess of dansyl-labeled peptide corresponding to the C-terminal […] of HPV18 E6 (150 μM). […] At high concentrations of dansylated peptide, none of the dissociated EKKHTLL will re-bind, and fitting to a single exponential function returns a kobs value which is equal to the dissociation rate constant, koff, of the pre-formed complex.
(§3) All of the stopped-flow experiments conducted in order to measure the rate constants for the peptide/PDZ interactions, were performed on an SX-20 MV stopped-flow spectrometer (Applied Photophysics Leatherhead, UK) at 10 °C in 50 mM potassium phosphate buffer, pH 7.5. Fluorescence was monitored using the change in emission of Trp342 in the PDZ variants (excitation at 280 nm; emission at 330 ± 30 nm). The peptides were N-acetylated (Ontores Biotechnologies) and the concentration of the respective stock solution was determined with either absorbance, quantitative amino acid analysis or direct detect (EMD Millipore). The rate constants of association, kon, and dissociation, koff, were determined in separate experiments. […] For each PDZ variant the kobs values were plotted versus the concentration of peptide and fitted to the general equation for a reversible bimolecular interaction[38][39] from which kon was derived. The koff was measured in a displacement experiment in which a pre-formed complex of PDZ variant (1 μM) and peptide (2 μM) was mixed with high concentrations of a dansylated RRRETQV-peptide (100, and 150 μM), which competes with the unlabelled peptide for binding to the PDZ. […] The kobs value at high peptide concentration is equal to the overall koff value, as described previously.

[2] = molecular target: T2, PDZØ9 (pWT SAP97 PDZ2 L391F/K392M); assay: Stopped-flow binding kinetics, peptide with PDZØ9; conditions: for Kd: Kd = koff/kon, ± propagated standard error; for Kd / koff / kon: stopped-flow; for Kd / koff: pH 7.5, 10 °C; for koff: displacement of pre-formed complex (1 µM PDZ, 2 µM peptide) with 100 and 150 µM dansylated RRRETQV peptide; for koff / kon: value ± standard error; for kon: Trp342 fluorescence, 1 µM PDZ, peptide 2–40 µM, N-acetylated peptide, 50 mM potassium phosphate pH 7.5, 10 °C
Experimental: as §1, §2, §3

[3] = molecular target: T3, pWT PDZ2 (pseudo wild type SAP97 PDZ2, I342W/C378A); assay: Stopped-flow binding kinetics, peptide with pWT PDZ2; conditions: for Kd: Kd = koff/kon, ± propagated standard error; for Kd / koff: pH 7.5, 10 °C; for kon: Trp342 fluorescence, 1 µM PDZ, peptide 2–40 µM, N-acetylated peptide, 50 mM potassium phosphate pH 7.5, 10 °C; for kon / koff: value ± standard error; for koff: displacement of pre-formed complex (1 µM PDZ, 2 µM peptide) with 100 and 150 µM dansylated RRRETQV peptide
Experimental: as §1, §2, §3

[4] = molecular target: T4, pWT PDZ2 L391F; assay: Stopped-flow binding kinetics, peptide with pWT PDZ2 L391F; conditions: for Kd: Kd = koff/kon, ± propagated standard error; for Kd / koff: pH 7.5, 10 °C; for kon: Trp342 fluorescence, 1 µM PDZ, peptide 2–40 µM, N-acetylated peptide, 50 mM potassium phosphate pH 7.5, 10 °C; for kon / koff: value ± standard error; for koff: displacement of pre-formed complex (1 µM PDZ, 2 µM peptide) with 100 and 150 µM dansylated RRRETQV peptide
Experimental: as §1, §2, §3

[5] = molecular target: pWT PDZ2 L391F (human) (UniProt Q12959); assay: stopped-flow spectroscopy
pWT PDZ2 L391F (human), sequence (Q12959 311-407, stated change not applied): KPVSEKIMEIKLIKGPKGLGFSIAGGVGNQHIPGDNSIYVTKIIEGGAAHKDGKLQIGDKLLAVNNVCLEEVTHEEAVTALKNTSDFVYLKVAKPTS

[6] = molecular target: PDZØ9, engineered variant (L391F/K392M) of pWT SAP97 PDZ2 (human) (UniProt Q12959); assay: stopped-flow spectroscopy
PDZØ9, engineered variant (L391F/K392M) of pWT SAP97 PDZ2 (human), sequence (Q12959 311-407, stated change not applied): as the sequence (Q12959 311-407, stated change not applied) above

[7] = molecular target: Pseudo wild type SAP97 PDZ2 (second PDZ domain of synapse associated protein 97, I342W/C378A) (human) (UniProt Q12959); assay: stopped-flow spectroscopy
Pseudo wild type SAP97 PDZ2 (second PDZ domain of synapse associated protein 97, I342W/C378A) (human), sequence (Q12959 311-407, stated change not applied): as the sequence (Q12959 311-407, stated change not applied) above

[8] = molecular target: pWT PDZ2 K392M (human) (UniProt Q12959); assay: stopped-flow spectroscopy

| Molecule | Kd [1] [nM] | kon [1] [M⁻¹ s⁻¹] | koff [1] [s⁻¹] | Kd [2] [nM] | koff [2] [s⁻¹] | kon [2] [M⁻¹ s⁻¹] | Kd [3] [nM] | kon [3] [M⁻¹ s⁻¹] | koff [3] [s⁻¹] | Kd [4] [nM] | kon [4] [M⁻¹ s⁻¹] | koff [4] [s⁻¹] | further results |
| --- | --- | --- | --- | --- | --- | --- | --- | --- | --- | --- | --- | --- | --- |
| Ac-EKKHTLL [EKKHTLL] | 14000 ± 2000 | 1.1e+07 ± 1.7e+06 | 157 ± 2 | 560 ± 5 | 7.9 ± 0.04 | 1.4e+07 ± 100000 | 9300 ± 400 | 1.2e+07 ± 500000 | 112 ± 1.2 | 650 ± 7 | 1.1e+07 ± 80000 | 7.1 ± 0.05 | – |
| Ac-KRKETLV [KRKETLV] | 470 ± 2 | 7.2e+06 ± 20000 | 3.4 ± 0.01 | 80 ± 1 | 0.6 ± 0.005 | 8e+06 ± 60000 | 470 ± 6 | 6.4e+06 ± 60000 | 3 ± 0.03 | 80 ± 1 | 7.4e+06 ± 60000 | 0.6 ± 0.005 | – |
| Ac-NSKETVV [NSKETVV] | 790 ± 10 | 9.7e+06 ± 70000 | 7.7 ± 0.18 | 160 ± 2 | 1.6 ± 0.01 | 1e+07 ± 70000 | 660 ± 7 | 1.3e+07 ± 100000 | 8.6 ± 0.07 | 150 ± 1 | 1.3e+07 ± 90000 | 1.9 ± 0.01 | – |
| Ac-PGKETQL [PGKETQL] | 2700 ± 200 | 1.8e+07 ± 600000 | 48 ± 2.3 | 240 ± 4 | 3.9 ± 0.03 | 1.6e+07 ± 200000 | 2800 ± 100 | 1.8e+07 ± 600000 | 51 ± 1.8 | 250 ± 4 | 2e+07 ± 300000 | 5 ± 0.02 | – |
| Ac-RRRETQV [RRRETQV, reference compound] | 370 ± 3 | 9e+06 ± 40000 | 3.3 ± 0.02 | 60 ± 2 | 0.6 ± 0.015 | 9.8e+06 ± 50000 | 400 ± 5 | 8e+06 ± 40000 | 3.2 ± 0.04 | 70 ± 1 | 8.7e+06 ± 40000 | 0.6 ± 0.01 | – |
| Ac-RSISTDV [RSISTDV] | 1800 ± 40 | 1.7e+07 ± 300000 | 31 ± 0.3 | 250 ± 5 | 4.3 ± 0.06 | 1.7e+07 ± 200000 | 1200 ± 30 | 2.1e+07 ± 500000 | 26 ± 0.3 | 180 ± 3 | 2.4e+07 ± 300000 | 4.3 ± 0.05 | – |
| Ac-SARSTDV [SARSTDV] | 2100 ± 30 | 1.2e+07 ± 100000 | 25 ± 0.3 | 260 ± 5 | 3.4 ± 0.06 | 1.3e+07 ± 100000 | 1600 ± 30 | 1.6e+07 ± 200000 | 26 ± 0.3 | 220 ± 3 | 1.8e+07 ± 100000 | 4 ± 0.05 | – |
| Ac-TSRETDL [TSRETDL] | 4100 ± 200 | 1.5e+07 ± 500000 | 62 ± 0.9 | 170 ± 4 | 2.6 ± 0.04 | 1.5e+07 ± 200000 | 2200 ± 70 | 3.3e+07 ± 1.1e+06 | 71 ± 0.5 | 210 ± 6 | 1.8e+07 ± 400000 | 3.8 ± 0.06 | – |
| Ac-VSKETPL [VSKETPL] | 6300 ± 600 | 2.4e+07 ± 2.2e+06 | 150 ± 3 | 750 ± 20 | 6.3 ± 0.2 | 8.4e+06 ± 60000 | 3900 ± 200 | 4e+07 ± 2.2e+06 | 154 ± 3 | 800 ± 20 | 1.1e+07 ± 100000 | 8.8 ± 0.2 | – |
| Ac-YRRESAI [YRRESAI] | 4200 ± 100 | 2.5e+07 ± 700000 | 105 ± 0.5 | 770 ± 10 | 17 ± 0.2 | 2.2e+07 ± 200000 | 4600 ± 100 | 1.9e+07 ± 500000 | 87 ± 0.5 | 790 ± 10 | 1.9e+07 ± 100000 | 15 ± 0.2 | – |
| dansyl-labeled peptide: dansyl-labeled peptide corresponding to the C-terminal six residues of HPV18 E6, competitor in displacement experiments (RRRETQV; also: dansyl label, position not given here) [reference compound] | – | – | – | – | – | – | – | – | – | – | – | – | kobs, binding of free PDZØ9 to the dansyl-labeled peptide ([2]; 150 μM dansyl-labeled peptide, initial part of displacement trace): ~1000 s⁻¹ |
| B1 | – | – | – | – | – | – | – | – | – | – | – | – | koff [5]: 4.3 s⁻¹; kon [5]: 2.4e+07 M⁻¹ s⁻¹; koff [6]: 4.3 s⁻¹; kon [6]: 1.7e+07 M⁻¹ s⁻¹; koff [7]: 26 s⁻¹; kon [7]: 2.1e+07 M⁻¹ s⁻¹; koff [8]: 31 s⁻¹; kon [8]: 1.7e+07 M⁻¹ s⁻¹ |
| B2 | – | – | – | – | – | – | – | – | – | – | – | – | Kd [5]: 80 nM; koff [5]: 0.6 s⁻¹; kon [5]: 7.4e+06 M⁻¹ s⁻¹; Kd [6]: 80 nM; koff [6]: 0.6 s⁻¹; kon [6]: 8e+06 M⁻¹ s⁻¹; Kd [7]: 470 nM; koff [7]: 3 s⁻¹; kon [7]: 6.4e+06 M⁻¹ s⁻¹; Kd [8]: 470 nM; koff [8]: 3.4 s⁻¹; kon [8]: 7.2e+06 M⁻¹ s⁻¹ |
